How the values were obtained:
[1] = Stability of aqueous solution (1H-NMR in waters with different pH); format: physicochemical; details: aqueous solutions of pH 1 (hydrochloric acid), pH 7 (water), pH 9 (sodium hydrogen carbonate), FIG. 1
Experimental: In order to investigate the stability of the lactam compound (L2) in water having different pH, an aqueous solution having a pH of 1 using hydrochloric acid, an aqueous solution having a pH of 7 in which the lactam compound (L2) was dissolved in water, and an aqueous solution having a pH of 9 using sodium hydrogen carbonate were subjected to ^1H-NMR measurement.

[2] = test system: paddy rice variety "Nipponbare"; experiment: Alkaline soil cultivation test; format: in vivo; details: fossil shellfish soil pH9; 30 μmol administered only once; SPAD 7 days after the administration; FIG. 4
Experimental: The paddy rice variety “Nipponbare” was seeded in tap water. When roots and buds emerged, seedlings were soaked in a hydroponic solution (formulation in the Horticultural Experiment Station). When the plant height reached about 7 cm, the seedlings were transplanted into fossil shellfish soil having a pH9. Aqueous solutions containing 30 μmol of each of Fe-PDMA, only PDMA, a complex composed of the lactam compound (L2) and iron sulfate (III) (hereinafter, referred to as “Fe(III)-lactam compound (L2)”), a complex composed of the lactam compound (L2) and iron sulfate (II) (hereinafter, referred to as “Fe(II)-lactam compound (L2)”), lactam compound (L2), disodium ethylenediamine tetraacetate, Fe-EDTA, Fe-EDDHA, iron sulfate (III) or iron sulfate (II). were administered only once to each of the soil to measure SPAD values 7 days after the administration. According to FIG. 4, SPAD values were 33.8 and 30.9, respectively when either the Fe-lactam compound (L2) of divalent and trivalent iron was used.

stability of the lactam ring in water [1]: the lactam ring structure is maintained
SMILES: O=C(O)[C@@H]1CCCN1CC[C@@H](C(=O)O)N1CC[C@H](O)C1=O [lactam compound (L2)]
growth effect in alkaline soil [2]: the effect can be obtained
